# Reference: ChEMBL document CHEMBL2034824, “Pyridyl-2,5-diketopiperazines as potent, selective, and orally bioavailable oxytocin antagonists: synthesis, pharmacokinetics, and in vivo potency” (J Med Chem, 2012)
# Key:
# Rattus norvegicus [1] = experiment: Toxicity in Sprague-Dawley rat assessed as reduction in food intake at 100 mg/kg/day, po for 7 days; type: organism-based; parameters: route oral; details: in vivo, 168 h
# [2] = Half life in rat; type: ADME, organism-based; details: in vivo
# [3] = Chemical stability of the compound in aqueous solution at pH 2 to 6 up to 7 days in presence of light; type: physicochemical; details: buffer, pH 2, 168 h
# [4] = Lipophilicity, log D of the compound at pH 7.4; type: physicochemical; details: buffer
# [5] = Clearance in rat at 5 mg/kg; type: ADME, organism-based; parameters: dose 5 mg/kg; details: in vivo
# Cytochrome P450 2D6 = Cytochrome P450 2D6 (Homo sapiens, UniProt P10635); experiment: Inhibition of human CYP2D6; type: ADME
# Oxytocin receptor = molecular target: T1, Oxytocin receptor (Homo sapiens, UniProt P30559); experiment: Displacement of [3H]oxytocin from human oxytocin receptor
# T1 sequence (P30559 whole entry): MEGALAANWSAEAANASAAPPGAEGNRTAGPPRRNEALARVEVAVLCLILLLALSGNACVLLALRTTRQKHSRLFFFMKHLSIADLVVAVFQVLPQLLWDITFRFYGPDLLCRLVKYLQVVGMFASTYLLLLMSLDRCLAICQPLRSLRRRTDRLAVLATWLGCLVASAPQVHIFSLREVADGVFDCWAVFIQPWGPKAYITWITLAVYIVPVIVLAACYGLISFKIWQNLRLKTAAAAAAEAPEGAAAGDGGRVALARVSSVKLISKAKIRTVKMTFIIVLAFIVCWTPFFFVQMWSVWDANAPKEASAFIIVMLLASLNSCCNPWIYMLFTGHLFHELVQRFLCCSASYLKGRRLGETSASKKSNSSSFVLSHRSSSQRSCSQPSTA
# Cytochrome P450 1A2 = molecular target: T2, Cytochrome P450 1A2 (Homo sapiens, UniProt P05177); experiment: Inhibition of human CYP1A2; type: ADME
# T2 sequence (P05177 whole entry): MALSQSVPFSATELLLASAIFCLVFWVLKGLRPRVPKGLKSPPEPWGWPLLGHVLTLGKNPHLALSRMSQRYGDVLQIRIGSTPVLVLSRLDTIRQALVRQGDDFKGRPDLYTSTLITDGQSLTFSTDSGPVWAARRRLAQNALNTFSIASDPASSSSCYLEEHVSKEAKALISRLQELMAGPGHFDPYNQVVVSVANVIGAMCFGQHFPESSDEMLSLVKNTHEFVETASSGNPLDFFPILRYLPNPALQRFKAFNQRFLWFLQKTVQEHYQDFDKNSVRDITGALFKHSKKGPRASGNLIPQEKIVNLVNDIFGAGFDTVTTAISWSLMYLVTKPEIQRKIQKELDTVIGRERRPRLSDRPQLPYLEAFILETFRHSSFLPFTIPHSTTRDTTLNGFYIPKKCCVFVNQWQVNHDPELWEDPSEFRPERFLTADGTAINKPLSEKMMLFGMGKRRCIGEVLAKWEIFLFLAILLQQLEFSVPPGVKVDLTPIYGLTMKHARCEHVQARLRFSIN
# Cytochrome P450 3A4 [6] = molecular target: T3, Cytochrome P450 3A4 (Homo sapiens, UniProt P08684); experiment: Inhibition of human CYP3A4 using diethoxyfluorescein as substrate; type: ADME
# serum albumin [7] = molecular target: serum albumin (Homo sapiens, UniProt P02768); experiment: Binding affinity to human serum albumin; type: ADME; details: read-out: PB (converted)
# [8] = AUC in rat at 5 mg/kg, po; type: ADME, organism-based; parameters: dose 5 mg/kg, route oral; details: plasma
# Cytochrome P450 3A4 [9] = molecular target: T3, Cytochrome P450 3A4; experiment: Inhibition of human CYP3A4 using 7-benzyloxyquinoline as substrate; type: ADME
# [10] = Aqueous solubility of the compound by HPLC analysis; type: physicochemical
# [11] = Intrinsic clearance in cynomolgus monkey liver microsomes; type: ADME, Macaca fascicularis, Microsome
# Liver microsomes [12] = experiment: Intrinsic clearance in human liver microsomes; type: ADME, Microsome
# Rattus norvegicus [13] = experiment: Toxicity in Sprague-Dawley rat assessed as adverse clinical signs at 100 mg/kg/day, po for 7 days; type: organism-based; parameters: route oral; details: in vivo, 168 h
# Rattus norvegicus [14] = experiment: Toxicity in Sprague-Dawley rat assessed as adverse histological findings at 100 mg/kg/day, po for 7 days; type: organism-based; parameters: route oral; details: in vivo, 168 h
# Salmonella typhimurium = experiment: Genotoxicity in Salmonella typhimurium by high-throughput fluctuation test/mini-Ames assay; type: toxicity, organism-based; details: salmonella enterica subsp. enterica serovar typhimurium
# Liver microsomes [15] = experiment: Intrinsic clearance in rat liver microsomes; type: ADME, Microsome
# [16] = Lipophilicity, log D of the compound by HPLC analysis; type: physicochemical
# [17] = Clearance in dog at 0.6 mg/kg; type: ADME, organism-based, Canis lupus familiaris; parameters: dose 0.6 mg/kg; details: in vivo
# [18] = Solubility of the compound in water; type: physicochemical
# Vasopressin V2 receptor = Vasopressin V2 receptor (Homo sapiens, UniProt P30518); experiment: Displacement of [3H]vasopressin from human vasopressin V2 receptor
# [19] = Clearance in cynomolgus monkey at 2 mg/kg; type: ADME, organism-based, Macaca fascicularis; parameters: dose 2 mg/kg; details: in vivo
# [20] = Oral bioavailability in dog at 0.6 mg/kg; type: ADME, organism-based, Canis lupus familiaris; details: in vivo
# Rattus norvegicus [21] = experiment: Toxicity in Sprague-Dawley rat assessed as reduction in body weight at 100 mg/kg/day, po for 7 days; type: organism-based; parameters: route oral; details: in vivo, 168 h
# [22] = Oral bioavailability in cynomolgus monkey at 2 mg/kg; type: ADME, organism-based, Macaca fascicularis; details: in vivo
# Cytochrome P450 2C19 = Cytochrome P450 2C19 (Homo sapiens, UniProt P33261); experiment: Inhibition of human CYP2C19; type: ADME
# Cytochrome P450 2C9 = Cytochrome P450 2C9 (Homo sapiens, UniProt P11712); experiment: Inhibition of human CYP2C9; type: ADME
# Vasopressin V1b receptor = molecular target: T4, Vasopressin V1b receptor (Homo sapiens, UniProt P47901); experiment: Displacement of [3H]vasopressin from human vasopressin V1b receptor
# T4 sequence (P47901 whole entry): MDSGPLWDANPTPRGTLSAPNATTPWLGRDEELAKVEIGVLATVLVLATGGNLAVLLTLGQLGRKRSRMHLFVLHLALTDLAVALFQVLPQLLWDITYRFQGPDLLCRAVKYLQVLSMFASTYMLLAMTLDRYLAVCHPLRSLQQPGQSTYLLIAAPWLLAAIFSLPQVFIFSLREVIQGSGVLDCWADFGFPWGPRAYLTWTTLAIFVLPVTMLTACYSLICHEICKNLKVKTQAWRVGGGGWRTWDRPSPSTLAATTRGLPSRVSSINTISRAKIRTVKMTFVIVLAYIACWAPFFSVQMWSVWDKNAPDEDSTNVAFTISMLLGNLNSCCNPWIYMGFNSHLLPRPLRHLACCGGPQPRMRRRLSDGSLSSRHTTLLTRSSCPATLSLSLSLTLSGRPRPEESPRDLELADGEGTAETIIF
# [23] = AUC in dog at 0.6 mg/kg, po; type: ADME, organism-based, Canis lupus familiaris; parameters: dose 0.6 mg/kg, route oral; details: plasma
# Liver = experiment: Intrinsic clearance in dog liver microsomes; type: ADME, Canis lupus familiaris, Microsome
# [24] = AUC in cynomolgus monkey at 2 mg/kg, po; type: ADME, organism-based, Macaca fascicularis; parameters: dose 2 mg/kg, route oral; details: plasma
# [25] = Dissociation constant, pKa of the compound in aqueous solution; type: physicochemical
# Vasopressin V1a receptor = Vasopressin V1a receptor (Homo sapiens, UniProt P37288); experiment: Displacement of [3H]vasopressin from human vasopressin V1a receptor
# [26] = Oral bioavailability in rat at 5 mg/kg; type: ADME, organism-based; details: in vivo
# Rattus norvegicus [27] = experiment: Reduction of oxytocin-induced uterine contraction in iv dosed rat uterine contractility model; type: functional, organism-based
# [28] = Chemical stability of the compound up to 3 months at 50 degC; type: physicochemical
# serum albumin [29] = molecular target: serum albumin (Rattus norvegicus, UniProt P02770); experiment: Binding affinity to rat serum albumin; type: ADME; details: read-out: PB (converted)
# Chain of serum albumin (Rattus norvegicus, UniProt P02770) (P02770 whole entry): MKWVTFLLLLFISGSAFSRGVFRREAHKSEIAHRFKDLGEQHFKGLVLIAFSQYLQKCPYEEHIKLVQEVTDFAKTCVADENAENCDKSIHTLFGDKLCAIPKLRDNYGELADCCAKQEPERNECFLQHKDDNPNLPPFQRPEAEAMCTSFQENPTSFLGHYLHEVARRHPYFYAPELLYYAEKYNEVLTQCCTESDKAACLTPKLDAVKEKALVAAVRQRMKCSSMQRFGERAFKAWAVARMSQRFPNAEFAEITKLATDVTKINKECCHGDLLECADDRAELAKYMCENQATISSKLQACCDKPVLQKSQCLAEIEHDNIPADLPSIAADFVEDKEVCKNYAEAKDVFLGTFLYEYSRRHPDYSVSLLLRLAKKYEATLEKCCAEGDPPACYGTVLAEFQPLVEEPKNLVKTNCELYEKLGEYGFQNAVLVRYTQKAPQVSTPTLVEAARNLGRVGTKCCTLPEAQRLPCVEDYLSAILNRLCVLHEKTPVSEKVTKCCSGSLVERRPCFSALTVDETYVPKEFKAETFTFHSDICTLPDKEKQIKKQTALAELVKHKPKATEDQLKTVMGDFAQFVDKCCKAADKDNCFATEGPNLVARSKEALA
# T3 sequence (P08684 whole entry): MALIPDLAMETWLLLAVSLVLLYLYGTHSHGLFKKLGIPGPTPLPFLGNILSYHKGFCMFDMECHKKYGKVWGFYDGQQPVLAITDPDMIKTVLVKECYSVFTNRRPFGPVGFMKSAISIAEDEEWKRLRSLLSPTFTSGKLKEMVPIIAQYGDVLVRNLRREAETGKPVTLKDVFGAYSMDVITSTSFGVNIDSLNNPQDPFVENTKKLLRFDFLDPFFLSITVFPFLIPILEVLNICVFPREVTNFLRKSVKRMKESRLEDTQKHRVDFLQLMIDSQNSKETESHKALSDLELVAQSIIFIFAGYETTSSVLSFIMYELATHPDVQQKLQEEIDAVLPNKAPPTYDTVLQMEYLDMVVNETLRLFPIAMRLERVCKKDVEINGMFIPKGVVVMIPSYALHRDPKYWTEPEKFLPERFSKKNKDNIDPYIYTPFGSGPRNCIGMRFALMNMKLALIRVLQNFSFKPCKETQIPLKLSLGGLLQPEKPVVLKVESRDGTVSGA
# Chain of Vasopressin V2 receptor (P30518 whole entry): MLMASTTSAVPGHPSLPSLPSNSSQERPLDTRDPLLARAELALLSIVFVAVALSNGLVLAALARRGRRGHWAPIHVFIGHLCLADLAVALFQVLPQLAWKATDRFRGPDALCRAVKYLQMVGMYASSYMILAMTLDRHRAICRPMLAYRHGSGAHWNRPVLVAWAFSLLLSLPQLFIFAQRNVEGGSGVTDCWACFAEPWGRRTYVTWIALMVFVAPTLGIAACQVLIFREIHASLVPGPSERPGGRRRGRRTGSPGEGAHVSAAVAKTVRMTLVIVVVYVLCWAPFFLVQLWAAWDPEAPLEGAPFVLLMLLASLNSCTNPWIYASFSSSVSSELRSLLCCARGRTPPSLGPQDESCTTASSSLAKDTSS
# Chain of serum albumin (Homo sapiens, UniProt P02768) (P02768 whole entry): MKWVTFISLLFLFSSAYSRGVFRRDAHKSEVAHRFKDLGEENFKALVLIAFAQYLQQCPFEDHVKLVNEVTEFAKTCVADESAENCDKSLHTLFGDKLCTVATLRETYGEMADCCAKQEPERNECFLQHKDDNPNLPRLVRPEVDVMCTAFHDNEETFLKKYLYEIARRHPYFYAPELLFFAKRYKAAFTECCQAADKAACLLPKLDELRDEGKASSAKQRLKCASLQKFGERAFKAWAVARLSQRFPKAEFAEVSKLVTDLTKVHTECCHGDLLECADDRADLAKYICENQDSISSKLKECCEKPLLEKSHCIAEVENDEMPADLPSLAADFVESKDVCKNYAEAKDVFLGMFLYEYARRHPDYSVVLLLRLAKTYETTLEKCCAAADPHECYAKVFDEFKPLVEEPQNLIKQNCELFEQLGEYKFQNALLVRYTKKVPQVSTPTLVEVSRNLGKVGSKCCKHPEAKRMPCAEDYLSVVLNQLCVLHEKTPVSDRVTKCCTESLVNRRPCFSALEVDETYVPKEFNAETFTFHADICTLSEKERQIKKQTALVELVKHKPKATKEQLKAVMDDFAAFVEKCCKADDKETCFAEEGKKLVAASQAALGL
# Chain of Cytochrome P450 2C19 (P33261 whole entry): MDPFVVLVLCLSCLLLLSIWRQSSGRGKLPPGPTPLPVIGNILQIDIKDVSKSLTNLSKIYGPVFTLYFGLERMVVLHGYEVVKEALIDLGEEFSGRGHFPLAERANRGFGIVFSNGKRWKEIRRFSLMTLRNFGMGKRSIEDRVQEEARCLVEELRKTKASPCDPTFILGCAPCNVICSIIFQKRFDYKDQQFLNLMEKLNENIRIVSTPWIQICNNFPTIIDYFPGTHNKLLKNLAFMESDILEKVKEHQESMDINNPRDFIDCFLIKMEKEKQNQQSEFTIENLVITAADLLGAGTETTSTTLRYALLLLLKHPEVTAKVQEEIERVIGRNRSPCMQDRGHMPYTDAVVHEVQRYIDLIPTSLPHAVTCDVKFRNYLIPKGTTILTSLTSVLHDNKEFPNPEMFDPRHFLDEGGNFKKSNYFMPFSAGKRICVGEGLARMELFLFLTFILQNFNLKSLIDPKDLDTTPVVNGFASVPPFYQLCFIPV
# Chain of Cytochrome P450 2D6 (P10635 whole entry): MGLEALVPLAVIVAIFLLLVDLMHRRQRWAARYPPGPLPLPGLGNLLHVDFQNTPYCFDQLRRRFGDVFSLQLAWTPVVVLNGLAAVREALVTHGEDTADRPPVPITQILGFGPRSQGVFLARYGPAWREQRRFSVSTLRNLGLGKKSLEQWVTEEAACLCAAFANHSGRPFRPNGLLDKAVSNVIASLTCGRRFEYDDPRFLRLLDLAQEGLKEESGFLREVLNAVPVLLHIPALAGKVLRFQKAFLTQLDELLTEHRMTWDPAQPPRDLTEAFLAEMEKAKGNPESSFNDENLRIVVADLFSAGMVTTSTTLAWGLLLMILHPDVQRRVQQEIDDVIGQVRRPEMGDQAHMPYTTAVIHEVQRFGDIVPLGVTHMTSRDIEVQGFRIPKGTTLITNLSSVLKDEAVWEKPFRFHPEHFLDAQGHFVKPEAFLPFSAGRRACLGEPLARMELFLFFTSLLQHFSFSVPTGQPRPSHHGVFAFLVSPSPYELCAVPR
# Chain of Cytochrome P450 2C9 (P11712 whole entry): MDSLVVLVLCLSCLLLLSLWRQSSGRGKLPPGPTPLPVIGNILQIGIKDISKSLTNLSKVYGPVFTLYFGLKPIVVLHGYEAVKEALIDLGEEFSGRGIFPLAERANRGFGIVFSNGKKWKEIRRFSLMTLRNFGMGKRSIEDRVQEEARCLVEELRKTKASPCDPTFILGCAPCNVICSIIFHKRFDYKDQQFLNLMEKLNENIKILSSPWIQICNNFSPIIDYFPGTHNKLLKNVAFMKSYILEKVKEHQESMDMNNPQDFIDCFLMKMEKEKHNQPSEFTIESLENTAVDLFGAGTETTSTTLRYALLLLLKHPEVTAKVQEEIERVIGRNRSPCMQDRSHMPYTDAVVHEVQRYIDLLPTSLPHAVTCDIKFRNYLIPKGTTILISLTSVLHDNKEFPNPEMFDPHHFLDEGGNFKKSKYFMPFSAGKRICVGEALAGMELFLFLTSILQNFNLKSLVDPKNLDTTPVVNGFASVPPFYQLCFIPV
# Chain of Vasopressin V1a receptor (P37288 whole entry): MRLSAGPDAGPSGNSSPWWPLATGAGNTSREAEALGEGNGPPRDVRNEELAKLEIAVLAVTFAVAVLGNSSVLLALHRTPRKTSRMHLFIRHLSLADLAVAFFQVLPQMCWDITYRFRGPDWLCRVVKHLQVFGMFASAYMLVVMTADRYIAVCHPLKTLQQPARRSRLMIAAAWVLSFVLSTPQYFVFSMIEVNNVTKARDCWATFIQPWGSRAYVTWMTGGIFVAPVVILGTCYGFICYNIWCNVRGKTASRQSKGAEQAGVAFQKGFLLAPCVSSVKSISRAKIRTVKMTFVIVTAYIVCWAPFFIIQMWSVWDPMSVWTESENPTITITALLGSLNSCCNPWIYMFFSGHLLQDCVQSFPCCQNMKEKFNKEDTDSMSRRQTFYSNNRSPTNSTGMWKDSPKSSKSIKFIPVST
smiles,measurement,setting,value
CC[C@H](C)[C@@H]1C(=O)N[C@H](C2Cc3ccccc3C2)C(=O)N1[C@@H](C(=O)N1CCOCC1)c1ccc(C)nc1C [EPELSIBAN],Activity,Rattus norvegicus [1],Non-toxic
same,half-life,[2],1.2 h
same,Stability,[3],Stable
same,logD,[4],2.55
same,clearance,[5],13 mL/min/kg
same,IC50,Cytochrome P450 2D6,> 100 µM
same,Ki,Oxytocin receptor,0.126 nM
same,IC50,Cytochrome P450 1A2,> 100 µM
same,IC50,Cytochrome P450 3A4 [6],> 100 µM
same,fraction unbound,serum albumin [7],0.3
same,AUC,[8],3450 ng·h/mL
same,IC50,Cytochrome P450 3A4 [9],> 100 µM
same,solubility,[10],0.232 mg/mL
same,CLH,[11],4 mL/min/g
same,CLH,Liver microsomes [12],5 mL/min/g
same,Activity,Rattus norvegicus [13],Non-toxic
same,Activity,Rattus norvegicus [14],Non-toxic
same,Activity,Salmonella typhimurium,Non-toxic
same,CLH,Liver microsomes [15],< 1 mL/min/g
same,logD,[16],2.2
same,clearance,[17],19 mL/min/kg
same,solubility,[18],33 mg/mL
same,Ki,Vasopressin V2 receptor,3.98 µM
same,clearance,[19],26 mL/min/kg
same,bioavailability,[20],13%
same,Activity,Rattus norvegicus [21],Non-toxic
same,bioavailability,[22],7%
same,IC50,Cytochrome P450 2C19,> 100 µM
same,IC50,Cytochrome P450 2C9,> 100 µM
same,Ki,Vasopressin V1b receptor,> 7.94 µM
same,AUC,[23],69 ng·h/mL
same,CLH,Liver,< 1 mL/min/g
same,AUC,[24],116 ng·h/mL
same,pKa,[25],5.78
same,Ki,Vasopressin V1a receptor,> 6.31 µM
same,bioavailability,[26],55%
same,IC50,Rattus norvegicus [27],0.192 µM
same,Stability,[28],Stable
CC(C)C[C@@H]1C(=O)N[C@H](C2Cc3ccccc3C2)C(=O)N1[C@@H](C(=O)N(C)C)c1ccc(F)cc1F,clearance,[5],15 mL/min/kg
same,IC50,Cytochrome P450 2D6,66 µM
same,Ki,Oxytocin receptor,0.0794 nM
same,IC50,Cytochrome P450 1A2,> 100 µM
same,IC50,Cytochrome P450 3A4 [6],5 µM
same,fraction unbound,serum albumin [7],0.06
same,AUC,[8],2970 ng·h/mL
same,IC50,Cytochrome P450 3A4 [9],31 µM
same,CLH,[11],22 mL/min/g
same,CLH,Liver microsomes [12],14 mL/min/g
same,CLH,Liver microsomes [15],2 mL/min/g
same,logD,[16],3.4
same,clearance,[17],7 mL/min/kg
same,Ki,Vasopressin V2 receptor,0.0398 µM
same,clearance,[19],24 mL/min/kg
same,bioavailability,[22],1.5%
same,IC50,Cytochrome P450 2C19,38 µM
same,IC50,Cytochrome P450 2C9,12 µM
same,fraction unbound,serum albumin [29],0.01
same,Ki,Vasopressin V1b receptor,> 12.6 µM
same,AUC,[23],770 ng·h/mL
same,CLH,Liver,7 mL/min/g
same,AUC,[24],16 ng·h/mL
same,Ki,Vasopressin V1a receptor,0.631 µM
